Source: publication PMC6222857, “Synthesis and Preliminary Evaluation of Biological Activity of Glycoconjugates Analogues of Acyclic Uridine Derivatives” (Molecules : A Journal of Synthetic Chemistry and Natural …, 2018)
pIC50: −log10 of the molar value.

Molecular target: T1, β-1,4-galactosyltransferase I (β4GalT) from bovine milk (Bos taurus, UniProt P08037)
T1 construct: gene B4GALT1
T1 sequence (P08037 1-402): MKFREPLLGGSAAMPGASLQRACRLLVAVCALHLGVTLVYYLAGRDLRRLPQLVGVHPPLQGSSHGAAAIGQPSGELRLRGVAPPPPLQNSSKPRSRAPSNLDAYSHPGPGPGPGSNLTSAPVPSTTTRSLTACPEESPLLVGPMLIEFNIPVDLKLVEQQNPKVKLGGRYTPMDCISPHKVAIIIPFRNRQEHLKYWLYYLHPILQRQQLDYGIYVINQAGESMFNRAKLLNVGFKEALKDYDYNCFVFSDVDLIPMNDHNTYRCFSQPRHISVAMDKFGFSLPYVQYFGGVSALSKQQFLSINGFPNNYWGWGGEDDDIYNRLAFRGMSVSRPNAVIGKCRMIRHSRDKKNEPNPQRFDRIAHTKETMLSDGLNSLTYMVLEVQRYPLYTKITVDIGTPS
Experiment: RP-HPLC enzymatic assay with fluorescence detection: galactose transfer from UDP-Gal to esculine
Assay type: biochemical

## O=C(CCOCn1ccc(=O)[nH]c1=O)Nc1ccc(S[C@@H]2O[C@H](CO)[C@@H](O)[C@H](O)[C@H]2O)nc1 [compound 64, Glycoconjugate 64]
  pIC50: 3.15
